Experimental data published in EP4389749A1, “SUBSTITUTED 3,7-DIHYDRO-1H-PURINE-2,6-DIONES AND USE THEREOF” (invIOs GmbH, priority 2022, dated 2024).

Key:
[1] = tested on: B16-SIY melanoma; assay: Efficacy on B16-SIY melanoma, in vivo tumor growth; conditions: p.o., over the course of 21 days, C57BL/6 mice, B16-SIY intradermal
Method: Eight-weeks-old C57BL/6 mice were purchased from Charles River. All animal experiments were in accordance with institutional guidelines of the Research Institute of Molecular Pathology (Austria) and approved according to the European Community rules of animal care with the permission of the Austrian Ministry of Science.
B16-SIY melanoma cells were cultured in DMEM containing 10 % FCS, 1 % PenStrep and 1 % glutamine and grown in a humidified incubator at 37 °C and 5 % CO2. For tumor inoculations sub-confluent B16-SIYcells were trypsinized, washed, counted and resuspended in PBS to a final concentration of 1×10^7 B16-SIY cells/ml.
30 C57BL/6 mice were inoculated intradermally with 1×10^6 B16-SIY cells and tumor bearing mice randomly assigned to 3 different groups […] post transplantation: Compound 142 30 mg/kg 3 days post B16-SIY inoculation and subsequent daily administration of 10 mg/kg (10 mice), Compound 142 9 mg/kg 3 days post B16-SIY inoculation and subsequent daily treatment of 3 mg/kg (10 mice), or vehicle control (10 mice). Compound 142 was diluted in 10 % DMSO, 20 % PEG400, 21 % HPbCD, 0.35 % HPMC and 48.65 % H2O and mice treated p.o. with 2 different treatment schedules: d3: 30 mg/kg + QD: 10 mg/kg or d3: 9 mg/kg + QD: 3 mg/kg (Figure 1). […] Tumors were measured daily and mice sacrificed 21 days post B16-SIY inoculation (Figure 1). […]

[2] = tested on: CD4+ T-cells; assay: Immunostimulation assay with anti-CD3/28 stimulated T-cells, CD69 expression by flow cytometry; type: cell-based, human; conditions: T-cell; purified human CD4+ and CD8+ T-cells, 1 µg/ml anti-CD3, 1 µg/ml anti-CD28, 16 hours, surface FACS; read-out: EC50 CD4+
How it was run: (§1)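 Human CD4+/CD8+ T-cells purified from buffy-coat PBMCs were stimulated with 1 µg/ml anti-CD3 and 1 µg/ml anti-CD28 plus compound (0.001–30 µM) for 16 h at 37 °C. CD69 measured by flow cytometry; DMSO set minimal, CD3/28 Dynabeads maximal activation; EC50 by variable-slope fit.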

[3] = tested on: CD8+ T-cells; assay: as above; type: cell-based, human; conditions: T-cell; purified human CD4+ and CD8+ T-cells, 1 µg/ml anti-CD3, 1 µg/ml anti-CD28, 16 hours, surface FACS; read-out: EC50 CD8+
How it was run: as §1

SMILES | Tumor volumes compared to vehicle control ([1]; d3: 9 mg/kg + QD: 3 mg/kg) | Tumor volumes compared to vehicle control ([1]; d3: 30 mg/kg + QD: 10 mg/kg) | EC50 [2] [nM] | EC50 [3] [nM]
CC(O)Cn1c(=O)[nH]c(=O)c2c1nc(-c1ccc(Oc3ccc(OC(F)(F)F)cc3)cc1)n2C (stereo not drawn) [Compound 142, 3-(2-hydroxypropyl)-7-methyl-8-(4-(4-(trifluoromethoxy)phenoxy)phenyl)-3,7-dihydro-1H-purine-2,6-dione] | significantly reduced | significantly reduced | 500 to 1000 | 500 to 1000
Cc1ccc(COc2ccc(-c3nc4c(c(=O)[nH]c(=O)n4CC(O)CO)n3C)cc2F)cc1 (stereo not drawn) [Compound 95, 3-(2,3-dihydroxypropyl)-8-(3-fluoro-4-((4-methylbenzyl)oxy)phenyl)-7-methyl-3,7-dihydro-1H-purine-2,6-dione] | – | – | 1000 to 5000 | 1000 to 5000
